According to patent US20150216925A1, “AGENT FOR PREVENTING OR AM[…] ENDOTHELIAL MALFUNCTION” (KYOWA HAKKO BIO CO., LTD., priority 2012, published 2015):

Test system: normal human umbilical vein endothelial cell (HUVEC)
Experiment: NO production (nitrite in culture supernatant) in HUVEC, HPLC
Format: cell-based
Details: 24-hour culture, FIG. 1
Description: A normal human umbilical vein endothelial cell (HUVEC) line available from Clonetics (SanDiego, Calif., USA) was used with EGM-2 Bullet Kit medium containing 2% FBS (Takara Bio). The cells were cultured in at 37° C., in 5% CO2 incubator, and used for experiment after 4 to 6 passages. Citrulline and reduced glutathione were obtained from Kyowa Hakko Bio.
A cell suspension (0.45 mL) with the adjusted initial cell concentration of 5×10^5 cells/mL was inoculated in a 24-well plate (IWAKI). After 40-hour culture, the media were replaced with those containing citrulline (final concentration 0.3 mM: citrulline group), reduced glutathione (final concentration 1 mM: high-dose glutathione group), and a citrulline and reduced glutathione mixture (citrulline final concentration 0.3 mM; glutathione final concentration 0.3 mM: citrulline+low-dose glutathione group). Media with the sole addition of solvent (PBS) were used as a control group. After 24-hour culture, the cell culture (100 μL) was centrifuged at 12,000 rpm for 10 minutes, and the concentration of nitrite (NO2), which is the stable NO metabolite, in culture supernatant was quantified by HPLC (ENO-20, EICOM).

Compound | effect on NO production (nitrite NO2 concentration in medium) (citrulline final concentration 0.3 mM) | effect on NO production (nitrite NO2 concentration in medium) (reduced glutathione final concentration 1 mM (high-dose))
NC(=O)NCCC[C@H](N)C(=O)O [citrulline, L-citrulline] | no effect | –
N[C@@H](CCC(=O)N[C@@H](CS)C(=O)NCC(=O)O)C(=O)O [glutathione, γ-L-Glu-L-Cys-Gly] | – | no effect
